Measured values reported in ChEMBL document CHEMBL1147725, “Identification and biological characterization of 6-aryl-7-isopropylquinazolinones as novel TRPV1 antagonists that are effective in models of chronic pain” (J Med Chem, 2006).

Columns and labels:
Rattus norvegicus [1] = test: Concentration in rat brain at 1 mg/kg, iv after 1 hrs; assay type: ADME, organism-based, Wistar Han; parameters: dose 1 mg/kg, route intravenous; conditions: in vivo
[2] = Cmax in rat plasma at 3 mg/kg, po; assay type: ADME, organism-based; parameters: dose 3 mg/kg, route oral; conditions: Wistar Han
[3] = Plasma concentration in rat at 10 mg/kg, po after 2 hrs; assay type: ADME, organism-based; parameters: dose 10 mg/kg, route oral; conditions: Wistar Han
Rattus norvegicus [4] = test: Concentration in rat brain at 3 mg/kg, po after 6 hrs; assay type: ADME, organism-based, Wistar Han; parameters: dose 3 mg/kg, route oral; conditions: in vivo
[5] = Oral Bioavailability in rat at 3mg/kg; assay type: ADME, organism-based; conditions: Wistar Han, in vivo
Rattus norvegicus [6] = test: Concentration in rat brain at 3 mg/kg, po after 9 hrs; assay type: ADME, organism-based, Wistar Han; parameters: dose 3 mg/kg, route oral; conditions: in vivo
[7] = Plasma concentration in rat at 3 mg/kg, po after 1.5 hrs; assay type: ADME, organism-based; parameters: dose 3 mg/kg, route oral; conditions: Wistar Han
Rattus norvegicus [8] = test: Concentration in rat brain at 10 mg/kg, po after 1 hrs; assay type: ADME, organism-based, Wistar Han; parameters: dose 10 mg/kg, route oral; conditions: in vivo
Rattus norvegicus [9] = test: Concentration in rat brain at 10 mg/kg, po after 18 hrs; assay type: ADME, organism-based, Wistar Han; parameters: dose 10 mg/kg, route oral; conditions: in vivo
Rattus norvegicus [10] = test: Concentration in rat brain at 10 mg/kg, po after 0.16 hrs; assay type: ADME, organism-based, Wistar Han; parameters: dose 10 mg/kg, route oral; conditions: in vivo
[11] = Permeability across Caco-2 cell membrane; assay type: ADME, cell-based; conditions: human, read-out: permeability (converted)
[12] = Plasma concentration in rat at 3 mg/kg, po after 4 hrs; assay type: ADME, organism-based; parameters: dose 3 mg/kg, route oral; conditions: Wistar Han
Rattus norvegicus [13] = test: Concentration in rat brain at 3 mg/kg, po after 2 hrs; assay type: ADME, organism-based, Wistar Han; parameters: dose 3 mg/kg, route oral; conditions: in vivo
Rattus norvegicus [14] = test: Concentration in rat brain at 3 mg/kg, po after 0.16 hrs; assay type: ADME, organism-based, Wistar Han; parameters: dose 3 mg/kg, route oral; conditions: in vivo
[15] = Plasma concentration in rat at 3 mg/kg, po after 1 hrs; assay type: ADME, organism-based; parameters: dose 3 mg/kg, route oral; conditions: Wistar Han
Rattus norvegicus [16] = test: Concentration in rat brain at 3 mg/kg, po after 24 hrs; assay type: ADME, organism-based, Wistar Han; parameters: dose 3 mg/kg, route oral; conditions: in vivo
[17] = Plasma concentration in rat at 10 mg/kg, po after 9 hrs; assay type: ADME, organism-based; parameters: dose 10 mg/kg, route oral; conditions: Wistar Han
Rattus norvegicus [18] = test: Concentration in rat brain at 1 mg/kg, iv after 0.033 hrs; assay type: ADME, organism-based, Wistar Han; parameters: dose 1 mg/kg, route intravenous; conditions: in vivo
[19] = Plasma concentration in rat at 10 mg/kg, po after 6 hrs; assay type: ADME, organism-based; parameters: dose 10 mg/kg, route oral; conditions: Wistar Han
Rattus norvegicus [20] = test: Concentration in rat brain at 1 mg/kg, iv after 4 hrs; assay type: ADME, organism-based, Wistar Han; parameters: dose 1 mg/kg, route intravenous; conditions: in vivo
[21] = biological target: Transient receptor potential cation channel subfamily V member 1 (Rattus norvegicus) (UniProt O35433); test: Effect on neuropathic mechanical hyperalgesia in rat at 1 hr; assay type: functional
Transient receptor potential cation channel subfamily V member 1 (Rattus norvegicus), sequence (O35433 whole entry): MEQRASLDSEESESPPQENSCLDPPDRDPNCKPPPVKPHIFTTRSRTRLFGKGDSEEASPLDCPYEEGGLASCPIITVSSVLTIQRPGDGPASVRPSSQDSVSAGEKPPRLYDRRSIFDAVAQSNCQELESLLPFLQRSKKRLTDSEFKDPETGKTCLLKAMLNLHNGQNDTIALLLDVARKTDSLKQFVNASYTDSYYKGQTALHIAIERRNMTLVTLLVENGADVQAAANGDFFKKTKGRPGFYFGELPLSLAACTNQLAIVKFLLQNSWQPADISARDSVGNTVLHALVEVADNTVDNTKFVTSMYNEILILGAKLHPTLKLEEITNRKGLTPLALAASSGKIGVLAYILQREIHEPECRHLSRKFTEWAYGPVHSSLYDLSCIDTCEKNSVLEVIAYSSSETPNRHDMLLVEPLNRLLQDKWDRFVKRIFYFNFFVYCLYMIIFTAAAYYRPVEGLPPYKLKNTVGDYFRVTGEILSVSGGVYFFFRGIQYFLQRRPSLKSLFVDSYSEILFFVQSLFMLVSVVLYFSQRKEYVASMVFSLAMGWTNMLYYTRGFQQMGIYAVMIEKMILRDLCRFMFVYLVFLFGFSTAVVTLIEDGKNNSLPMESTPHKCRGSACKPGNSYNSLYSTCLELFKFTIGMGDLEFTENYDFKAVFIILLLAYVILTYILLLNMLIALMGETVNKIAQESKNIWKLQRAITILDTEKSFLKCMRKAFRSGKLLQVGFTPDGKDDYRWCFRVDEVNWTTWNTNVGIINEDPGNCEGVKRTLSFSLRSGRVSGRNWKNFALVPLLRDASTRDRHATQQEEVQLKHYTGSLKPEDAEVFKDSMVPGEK

[22] = Plasma concentration in rat at 3 mg/kg, po after 9 hrs; assay type: ADME, organism-based; parameters: dose 3 mg/kg, route oral; conditions: Wistar Han
[23] = Tmax in rat brain at 1 mg/kg, iv; assay type: ADME, organism-based; parameters: dose 1 mg/kg, route intravenous; conditions: Wistar Han
Rattus norvegicus [24] = test: Concentration in rat brain at 10 mg/kg, po after 0.5 hrs; assay type: ADME, organism-based, Wistar Han; parameters: dose 10 mg/kg, route oral; conditions: in vivo
[25] = Plasma concentration in rat at 3 mg/kg, po after 6 hrs; assay type: ADME, organism-based; parameters: dose 3 mg/kg, route oral; conditions: Wistar Han
Rattus norvegicus [26] = test: Concentration in rat brain at 3 mg/kg, po after 4 hrs; assay type: ADME, organism-based, Wistar Han; parameters: dose 3 mg/kg, route oral; conditions: in vivo
Rattus norvegicus [27] = test: Cmax in rat brain at 3 mg/kg, po; assay type: ADME, organism-based, Wistar Han; parameters: dose 3 mg/kg, route oral; conditions: in vivo
[28] = Volume of distribution in rat at 1 mg/kg, iv; assay type: ADME, organism-based; parameters: dose 1 mg/kg, route intravenous; conditions: Wistar Han, in vivo, read-out: Vdss
Rattus norvegicus [29] = test: Concentration in rat brain at 1 mg/kg, iv after 0.16 hrs; assay type: ADME, organism-based, Wistar Han; parameters: dose 1 mg/kg, route intravenous; conditions: in vivo
[30] = Plasma concentration in rat at 1 mg/kg, iv after 2 hrs; assay type: ADME, organism-based; parameters: dose 1 mg/kg, route intravenous; conditions: Wistar Han
[31] = Plasma concentration in rat at 10 mg/kg, po after 1 hrs; assay type: ADME, organism-based; parameters: dose 10 mg/kg, route oral; conditions: Wistar Han
[32] = Plasma concentration in rat at 1 mg/kg, iv after 0.5 hrs; assay type: ADME, organism-based; parameters: dose 1 mg/kg, route intravenous; conditions: Wistar Han
[33] = Plasma concentration in rat at 10 mg/kg, po after 0.5 hrs; assay type: ADME, organism-based; parameters: dose 10 mg/kg, route oral; conditions: Wistar Han
Rattus norvegicus [34] = test: Concentration in rat brain at 10 mg/kg, po after 1.5 hrs; assay type: ADME, organism-based, Wistar Han; parameters: dose 10 mg/kg, route oral; conditions: in vivo
[35] = Plasma concentration in rat at 1 mg/kg, iv after 1.5 hrs; assay type: ADME, organism-based; parameters: dose 1 mg/kg, route intravenous; conditions: Wistar Han
[36] = Plasma concentration in rat at 10 mg/kg, po after 18 hrs; assay type: ADME, organism-based; parameters: dose 10 mg/kg, route oral; conditions: Wistar Han
[37] = biological target: Transient receptor potential cation channel subfamily V member 1 (Rattus norvegicus) (UniProt O35433); test: Effect on inflammatory mechanical hyperalgesia in rat at 1 hr; assay type: functional
[38] = Plasma concentration in rat at 3 mg/kg, po after 0.5 hrs; assay type: ADME, organism-based; parameters: dose 3 mg/kg, route oral; conditions: Wistar Han

Cc1nc2cc(C(C)C)c(-c3ccc(Cl)c(OCC4CC4)c3)cc2c(=O)[nH]1
Ct (Rattus norvegicus [1]): 709 pmol/g | Cmax [2]: 1910 nM | concentration at 2 h [3]: 4340 nM | Ct (Rattus norvegicus [4]): 1258 pmol/g | bioavailability [5]: 75% | Ct (Rattus norvegicus [6]): 249 pmol/g | concentration at 1.5 h [7]: 1790 nM | Ct (Rattus norvegicus [8]): 522 pmol/g | Ct (Rattus norvegicus [9]): 199 pmol/g | Ct (Rattus norvegicus [10]): 16.4 pmol/g | Papp [11]: 4.37 ×10⁻⁶ cm/s | concentration at 4 h [12]: 1910 nM | Ct (Rattus norvegicus [13]): 1364 pmol/g | Ct (Rattus norvegicus [14]): 32 pmol/g | concentration at 1 h [15]: 1530 nM | Ct (Rattus norvegicus [16]): < 125 pmol/g | concentration at 9 h [17]: 2900 nM | Ct (Rattus norvegicus [18]): 764 pmol/g | concentration at 6 h [19]: 3220 nM | Ct (Rattus norvegicus [20]): 155 pmol/g | ED50 [21]: 2.6 mg/kg | concentration at 9 h [22]: 904 nM | Tmax [23]: 30 min | Ct (Rattus norvegicus [24]): 181 pmol/g | concentration at 6 h [25]: 1860 nM | Ct (Rattus norvegicus [26]): 1666 pmol/g | Cmax (Rattus norvegicus [27]): 1666 pmol/g | Vd [28]: 1.55 L/kg | Ct (Rattus norvegicus [29]): 944 pmol/g | concentration at 2 h [30]: 1080 nM | concentration at 1 h [31]: 2680 nM | concentration at 0.5 h [32]: 1180 nM | concentration at 0.5 h [33]: 1460 nM | Ct (Rattus norvegicus [34]): 1038 pmol/g | concentration at 1.5 h [35]: 1120 nM | concentration at 18 h [36]: 583 nM | ED50 [37]: 4.7 mg/kg | concentration at 0.5 h [38]: 599 nM
